Results taken from PubChem BioAssay (NCI).
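Following 48 hours of exposure in 96-well plates, responses at five concentrations were used to interpolate endpoints linearly. The concentration for 50% growth inhibition is given as GI50. The concentration for full growth arrest is given as TGI.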

Tests used:
Test in all cases: DTP human tumour cell line panel, 48 h
HOP-92 NSCLC = test system: HOP-92 NSCLC
HT29 colon = test system: HT29 colon
MALME-3M melanoma = test system: MALME-3M melanoma
CCRF-CEM leukemia = test system: CCRF-CEM leukemia
MDA-MB-435 = test system: MDA-MB-435
K-562 leukemia = test system: K-562 leukemia
SNB-19 CNS = test system: SNB-19 CNS
M14 melanoma = test system: M14 melanoma
SF-539 CNS = test system: SF-539 CNS
BT-549 breast = test system: BT-549 breast

CCCCN(CCCC)CCCN=c1nc2c(c(N)n1-c1ccccc1)c(=S)n(-c1ccccc1)c(=S)n2-c1ccccc1
GI50 (HOP-92 NSCLC): 0.229 µM | TGI (HOP-92 NSCLC): 0.83 µM | GI50 (HT29 colon): 0.276 µM | TGI (HT29 colon): 0.784 µM | GI50 (MALME-3M melanoma): 0.604 µM | TGI (MALME-3M melanoma): 1.31 µM | GI50 (CCRF-CEM leukemia): 0.215 µM | GI50 (MDA-MB-435): 0.301 µM | TGI (MDA-MB-435): 0.93 µM | GI50 (K-562 leukemia): 0.54 µM | TGI (K-562 leukemia): > 100 µM | GI50 (SNB-19 CNS): 1.29 µM | TGI (SNB-19 CNS): 2.74 µM | GI50 (M14 melanoma): 0.206 µM | TGI (M14 melanoma): 0.424 µM | GI50 (SF-539 CNS): 1.36 µM | TGI (SF-539 CNS): 2.84 µM | GI50 (BT-549 breast): 1.67 µM | TGI (BT-549 breast): 3.38 µM

Cc1nc(/N=C(\N)NC(=O)Nc2ccccc2Cl)sc1C
GI50 (HOP-92 NSCLC): 1.54 µM | TGI (HOP-92 NSCLC): 15.8 µM | GI50 (HT29 colon): 0.333 µM | TGI (HT29 colon): 5.32 µM | GI50 (MALME-3M melanoma): 0.643 µM | TGI (MALME-3M melanoma): 4.79 µM | GI50 (CCRF-CEM leukemia): 0.352 µM | TGI (CCRF-CEM leukemia): > 53.2 µM | GI50 (MDA-MB-435): 0.0868 µM | TGI (MDA-MB-435): 0.466 µM | GI50 (K-562 leukemia): 0.0861 µM | TGI (K-562 leukemia): > 100 µM | GI50 (SNB-19 CNS): 0.462 µM | TGI (SNB-19 CNS): 12.4 µM | GI50 (M14 melanoma): 0.314 µM | TGI (M14 melanoma): 18.7 µM | GI50 (SF-539 CNS): 0.413 µM | TGI (SF-539 CNS): 8.34 µM | GI50 (BT-549 breast): 0.637 µM | TGI (BT-549 breast): 10.3 µM

O=C(c1cccs1)c1c(C(F)(F)F)n([O-])c2ccc(F)cc2[n+]1=O
GI50 (HOP-92 NSCLC): 0.914 µM | TGI (HOP-92 NSCLC): 2.48 µM | GI50 (HT29 colon): 0.868 µM | TGI (HT29 colon): 2.47 µM | GI50 (MALME-3M melanoma): 0.669 µM | TGI (MALME-3M melanoma): 2.25 µM | GI50 (CCRF-CEM leukemia): 0.662 µM | TGI (CCRF-CEM leukemia): 1.98 µM | GI50 (MDA-MB-435): 1.31 µM | TGI (MDA-MB-435): 2.87 µM | GI50 (K-562 leukemia): 0.0904 µM | TGI (K-562 leukemia): 0.27 µM | GI50 (SNB-19 CNS): 1.38 µM | TGI (SNB-19 CNS): 2.86 µM | GI50 (M14 melanoma): 1.54 µM | TGI (M14 melanoma): 3 µM | GI50 (SF-539 CNS): 1.67 µM | TGI (SF-539 CNS): 3.47 µM | GI50 (BT-549 breast): 0.815 µM | TGI (BT-549 breast): 2.6 µM

C=C(C)[C@@H]1CCC2=C[C@@H](OC2=O)[C@@H](C(=C)C)C(=O)/C=C(/C)C(=O)C1
GI50 (HOP-92 NSCLC): 17.4 µM | TGI (HOP-92 NSCLC): 58.2 µM | GI50 (HT29 colon): 41.8 µM | TGI (HT29 colon): > 100 µM | GI50 (MALME-3M melanoma): 23.8 µM | TGI (MALME-3M melanoma): 71.5 µM | GI50 (CCRF-CEM leukemia): 4.78 µM | TGI (CCRF-CEM leukemia): 28.8 µM | GI50 (MDA-MB-435): 38.8 µM | TGI (MDA-MB-435): > 100 µM | GI50 (K-562 leukemia): 18.7 µM | TGI (K-562 leukemia): > 100 µM | GI50 (SNB-19 CNS): 33.8 µM | TGI (SNB-19 CNS): > 100 µM | GI50 (M14 melanoma): 20.8 µM | TGI (M14 melanoma): 50.5 µM | GI50 (SF-539 CNS): 36.5 µM | TGI (SF-539 CNS): 95.4 µM | GI50 (BT-549 breast): 44.8 µM | TGI (BT-549 breast): > 100 µM

CCN(CC)C(=S)SC1CCOP(=O)(N(CCCl)CCCl)N1C (centres undefined)
TGI (HOP-92 NSCLC): 43.9 µM | TGI (HT29 colon): > 100 µM | TGI (MALME-3M melanoma): 45.9 µM | TGI (CCRF-CEM leukemia): 43.1 µM | TGI (MDA-MB-435): > 100 µM | TGI (K-562 leukemia): 49.9 µM | TGI (SNB-19 CNS): > 100 µM | TGI (M14 melanoma): > 54.1 µM | TGI (SF-539 CNS): 56.6 µM | TGI (BT-549 breast): > 100 µM

Cc1cc(-c2nc(-c3ccc(OC(F)(F)F)cc3)no2)nn1Cc1ccnc(N2CCN(C3CC3)CC2)c1
GI50 (HOP-92 NSCLC): 1.55 µM | TGI (HOP-92 NSCLC): 81.4 µM | GI50 (HT29 colon): 5.26 µM | TGI (HT29 colon): > 56.9 µM | GI50 (MALME-3M melanoma): 4.77 µM | TGI (MALME-3M melanoma): > 55.6 µM | GI50 (CCRF-CEM leukemia): 7.09 µM | TGI (CCRF-CEM leukemia): > 100 µM | GI50 (MDA-MB-435): 2.34 µM | TGI (MDA-MB-435): > 59 µM | GI50 (K-562 leukemia): < 0.01 µM | TGI (K-562 leukemia): > 100 µM | GI50 (SNB-19 CNS): > 23.1 µM | TGI (SNB-19 CNS): > 100 µM | GI50 (M14 melanoma): 2.69 µM | TGI (M14 melanoma): 20.4 µM | GI50 (SF-539 CNS): > 33 µM | TGI (SF-539 CNS): > 63.8 µM | TGI (BT-549 breast): > 52.6 µM

O=C(O)CCCCn1cnc2c(=S)nc[nH]c21
TGI (HOP-92 NSCLC): > 100 µM | TGI (HT29 colon): > 100 µM | TGI (MALME-3M melanoma): > 100 µM | TGI (CCRF-CEM leukemia): > 100 µM | TGI (MDA-MB-435): > 100 µM | TGI (K-562 leukemia): > 100 µM | TGI (SNB-19 CNS): > 100 µM | TGI (M14 melanoma): > 100 µM | TGI (SF-539 CNS): > 100 µM | TGI (BT-549 breast): > 100 µM

N#Cc1c(-c2ccccc2)cc(-c2ccccc2)n(CCCCC(=O)NO)c1=O
GI50 (HOP-92 NSCLC): 2.23 µM | TGI (HOP-92 NSCLC): 7.57 µM | GI50 (HT29 colon): 3.51 µM | TGI (HT29 colon): 13.4 µM | GI50 (MALME-3M melanoma): 1.25 µM | TGI (MALME-3M melanoma): 13.3 µM | GI50 (CCRF-CEM leukemia): 1.68 µM | TGI (CCRF-CEM leukemia): 6.45 µM | GI50 (MDA-MB-435): 2.4 µM | TGI (MDA-MB-435): 11.5 µM | GI50 (K-562 leukemia): 2.1 µM | TGI (K-562 leukemia): 12.4 µM | GI50 (SNB-19 CNS): 3.53 µM | TGI (SNB-19 CNS): 15.6 µM | GI50 (M14 melanoma): 2.76 µM | TGI (M14 melanoma): 11.6 µM | GI50 (SF-539 CNS): 2.51 µM | TGI (SF-539 CNS): 10.4 µM | GI50 (BT-549 breast): 3.65 µM | TGI (BT-549 breast): 16.4 µM

COc1c(CNC(=O)CCl)cc2[nH]c(C)cc2c1CNC(=O)CCl
GI50 (HOP-92 NSCLC): 4.08 µM | TGI (HOP-92 NSCLC): 20.2 µM | GI50 (HT29 colon): 5.97 µM | TGI (HT29 colon): 25.2 µM | GI50 (MALME-3M melanoma): 16.1 µM | TGI (MALME-3M melanoma): 50.3 µM | GI50 (CCRF-CEM leukemia): 2.71 µM | TGI (CCRF-CEM leukemia): > 100 µM | GI50 (MDA-MB-435): 5.2 µM | TGI (MDA-MB-435): 36.4 µM | GI50 (K-562 leukemia): 8.42 µM | TGI (K-562 leukemia): > 100 µM | GI50 (SNB-19 CNS): 12.5 µM | TGI (SNB-19 CNS): 91 µM | GI50 (SF-539 CNS): 7.09 µM | TGI (SF-539 CNS): 29.8 µM | GI50 (BT-549 breast): 17 µM | TGI (BT-549 breast): 35.2 µM

CC1=C([Se]CC(OC(=O)[C@@H](CO)NC(=O)OC(C)(C)C)C(=O)NC(C)(C)C)C(=O)c2ccccc2C1=O (some centres undefined)
GI50 (HOP-92 NSCLC): 1.88 µM | TGI (HOP-92 NSCLC): 3.43 µM | GI50 (HT29 colon): 2.3 µM | TGI (HT29 colon): 4.74 µM | GI50 (MALME-3M melanoma): 2.04 µM | TGI (MALME-3M melanoma): 3.77 µM | GI50 (CCRF-CEM leukemia): 0.525 µM | TGI (CCRF-CEM leukemia): > 100 µM | GI50 (MDA-MB-435): 2.01 µM | TGI (MDA-MB-435): 4.1 µM | GI50 (SNB-19 CNS): 0.66 µM | TGI (SNB-19 CNS): 2 µM | GI50 (M14 melanoma): 1.66 µM | TGI (M14 melanoma): 3.04 µM | GI50 (SF-539 CNS): 1.57 µM | TGI (SF-539 CNS): 3.05 µM | GI50 (BT-549 breast): 1.59 µM | TGI (BT-549 breast): 2.93 µM
